Measured values as given in patent publication US8173645B2 (Takeda San Diego, Inc., priority 2007, dated 2012).

Molecular target: T1, glucokinase (GK), residues 12-465 of the human enzyme (Homo sapiens, UniProt P35557)
T1 construct: I.D. No. 1 corresponds to residues 12-465 of glucokinase; made in house; host or cells: E. coli DH10b-Tlr
T1 sequence (P35557 with tags, fused parts or gaps isoform P35557-2): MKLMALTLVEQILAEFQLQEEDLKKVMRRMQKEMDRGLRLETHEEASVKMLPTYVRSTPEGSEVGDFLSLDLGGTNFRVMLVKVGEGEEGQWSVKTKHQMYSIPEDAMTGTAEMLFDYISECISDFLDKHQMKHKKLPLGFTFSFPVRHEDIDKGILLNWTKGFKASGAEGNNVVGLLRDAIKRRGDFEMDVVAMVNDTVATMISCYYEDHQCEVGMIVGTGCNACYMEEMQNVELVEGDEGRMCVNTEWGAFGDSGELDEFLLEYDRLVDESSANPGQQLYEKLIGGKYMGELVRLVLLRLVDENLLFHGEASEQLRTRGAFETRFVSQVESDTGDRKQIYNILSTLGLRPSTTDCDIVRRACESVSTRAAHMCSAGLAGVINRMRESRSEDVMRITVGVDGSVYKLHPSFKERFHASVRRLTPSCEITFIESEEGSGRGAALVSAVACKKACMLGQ
Assay: Enzymatic glucokinase activity assay (KinaseGlo luminescence, ATP consumption)
Assay type: biochemical
Conditions: 5 μM ATP, 5 mM Glucose; for EC50: GK activation, Kact = concentration giving 50% of the maximal increase in GK activity, read-out: pKact; for Emax: read-out: % ACTmax
From the text: The activity of compounds as glucokinase activators may be assayed in vitro, in vivo or in a cell line. Provided below is an enzymatic glucokinase activity assay.
Purified glucokinase may be obtained as follows. DNA encoding residues 12-465 of the full-length sequence of the human enzyme may be amplified by PCR and cloned into the HindIII and EcoRI sites of pFLAG-CTC (Sigma). SEQ. I.D. No. 1 corresponds to residues 12-465 of glucokinase.
The expression of recombinant glucokinase protein may be carried out by transformation and growth of DH10b-Tlr E. coli cells incorporating the (pFLAG-CTC) plasmid in LB media. Protein expression can be induced in this system by the addition of IPTG to the culture medium.
Recombinant protein may be isolated from cellular extracts by passage over Sepharose Q Fast Flow resin (Pharmacia). This partially purified GK extract may then be further purified by a second passage over Poros HQ 10 (Applied Biosystems). The purity of GK may be determined on denaturing SDS-PAGE gel. Purified GK may then be concentrated to a final concentration of 20.0 mg/ml. After flash freezing in liquid nitrogen, the proteins can be stored at −78° C. in a buffer containing 25 mM TRIS-HCl pH 7.6, 50 mM NaCl, and 0.5 mM TCEP.
The activation properties of compounds for GK may be determined using a black 384-well-plate format under the following reaction conditions: 25 mM Hepes pH 7.2, 25 mM NaCl, 10 mM MgCl2, 0.01% Brij35, 1 mM DTT, 5 μM ATP, 5 mM Glucose 2% DMSO. The amount of ATP consumed may be determined quantitatively by addition of equal volume of luciferase reagent (luciferase+beetle luciferin—KinaseGlo Luminescent Kinase Assay kit from Promega). The luminescence intensity may be measured by using the Analyst HT from LJL Biosystems.
The assay reaction may be initiated as follows: 4 μl of substrate mixture (12.5 μM ATP and 12.5 mM Glucose) was added to each well of the plate, followed by the addition of 2 μl of activator (2 fold serial dilutions for 11 data points for each activator) containing 10% DMSO. 4 μL of 1.25 nM GK solution may be added to initiate the reaction. The reaction mixture may then be incubated at room temperature for 60 min, and quenched and developed by addition of 10 μL of luciferase reagent. Luminescence intensities of the resulting reaction mixtures may be measured after a 10 min incubation at room temperature. The luminescence intensity may be measured by using the Analyst HT from LJL Biosystems.
pKact and % ACTmax values may be calculated by non-linear curve fitting of the compound concentrations and luminescence intensities to a standard inhibition/activation equation.

[1] = calculated maximal gain in GK enzyme activity at a saturating concentration of the compound

Row | Compound | EC50 [µM] | Emax [1] [%] | % ACTmax [1]
1 | CC(C)S(=O)(=O)N1CCN([C@@H](CC2CCCCC2)C(=O)Nc2nccs2)C(=O)C1 [Example 59, (S)-3-cyclohexyl-2-(4-(isopropylsulfonyl)-2-oxopiperazin-1-yl)-N-(thiazol-2-yl)propanamide] | 1.58 to 2.51 | ≥ 119 | –
2 | O=C(Nc1nccs1)[C@H](CC1CCCCC1)N1CCN(S(=O)(=O)c2cnc(Cl)c(Br)c2)CC1=O [Example 217, (S)-2-(4-(5-bromo-6-chloropyridin-3-ylsulfonyl)-2-oxopiperazin-1-yl)-3-cyclohexyl-N-(thiazol-2-yl)propanamide] | 1.58 to 2.51 | ≤ 74 | –
3 | N#Cc1cc(S(=O)(=O)N2CCN([C@@H](CC3CCCCC3)C(=O)Nc3nccs3)C(=O)C2)ccc1F [Example 230, (S)-2-(4-(3-cyano-4-fluorophenylsulfonyl)-2-oxopiperazin-1-yl)-3-cyclohexyl-N-(thiazol-2-yl)propanamide] | 1.58 to 2.51 | 74.1 to 97 | –
4 | CCn1cc(S(=O)(=O)N2CCN([C@@H](CC3CCCCC3)C(=O)Nc3nccs3)C(=O)C2)cn1 [Example 110, (S)-3-cyclohexyl-2-(4-(1-ethyl-1H-pyrazol-4-ylsulfonyl)-2-oxopiperazin-1-yl)-N-(thiazol-2-yl)propanamide] | ≥ 3.16 | ≥ 119 | –
5 | O=C(Nc1nccs1)[C@H](CC1CCCCC1)N1CCN(C(=S)Nc2ccc(F)cc2)CC1=O [Example 83, (S)-3-cyclohexyl-2-(4-(4-fluorophenylcarbamothioyl)-2-oxopiperazin-1-yl)N-(thiazol-2-yl)propanamide] | ≥ 3.16 | 108 to 119 | –
6 | O=C(Nc1nccs1)[C@H](CC1CCCCC1)N1CCN(C(=S)NCc2ccco2)CC1=O [Example 115, (S)-3-cyclohexyl-2-(4-(furan-2-ylmethylcarbamothioyl)-2-oxopiperazin-1-yl)-N-(thiazol-2-yl)propanamide] | 0.794 to 1.26 | 97.1 to 107 | –
7 | O=C(Nc1nccs1)[C@H](CC1CCCCC1)N1CCN(S(=O)(=O)Cc2ccc(F)cc2)CC1=O [Example 68, (S)-3-cyclohexyl-2-(4-(4-fluorobenzylsulfonyl)-2-oxopiperazin-1-yl)-N-(thiazol-2-yl)propanamide] | 0.794 to 1.26 | 97.1 to 107 | –
8 | N#Cc1ccc(S(=O)(=O)N2CCN([C@@H](CC3CCCCC3)C(=O)Nc3nccs3)C(=O)C2)cc1 [Example 66, (S)-2-(4-(4-cyanophenylsulfonyl)-2-oxopiperazin-1-yl)-3-cyclohexyl-N-(thiazol-2-yl)propanamide] | 1.58 to 2.51 | 74.1 to 97 | –
9 | O=C(Nc1nccs1)[C@H](CC1CCCCC1)N1CCN(C(=O)Nc2ccc(OCc3ccccc3)cc2)CC1=O [Example 146, (S)-N-(4-(benzyloxy)phenyl)-4-(3-cyclohexyl-1-oxo-1-(thiazol-2-ylamino)propan-2-yl)-3-oxopiperazine-1-carboxamide] | ≥ 3.16 | ≤ 74 | –
10 | O=C(Nc1nccs1)[C@H](CC1CCCCC1)N1CCN(S(=O)(=O)c2ccc3c(c2)CCO3)CC1=O [Example 102, (S)-3-cyclohexyl-2-(4-(2,3-dihydrobenzofuran-5-ylsulfonyl)-2-oxopiperazin-1-yl)-N-(thiazol-2-yl)propanamide] | 0.794 to 1.26 | 74.1 to 97 | –
11 | O=C(Nc1nccs1)[C@H](CC1CCCCC1)N1CCN(C(=S)NCc2cccc(F)c2)CC1=O [Example 119, (S)-3-cyclohexyl-2-(4-(3-fluorobenzylcarbamothioyl)-2-oxopiperazin-1-yl)-N-(thiazol-2-yl)propanamide] | 0.794 to 1.26 | 97.1 to 107 | –
12 | CC(=O)c1ccc(S(=O)(=O)N2CCN([C@@H](CC3CCCCC3)C(=O)Nc3nccs3)C(=O)C2)cc1 [Example 206] | ≥ 3.16 | 74.1 to 97 | –
13 | O=C(Nc1nccs1)[C@H](CC1CCCCC1)N1CCN(C(=S)NCc2ccc(F)cc2)CC1=O [Example 120, (S)-3-cyclohexyl-2-(4-(4-fluorobenzylcarbamothioyl)-2-oxopiperazin-1-yl)-N-(thiazol-2-yl)propanamide] | 0.794 to 1.26 | 108 to 119 | –
14 | O=C(Nc1nccs1)[C@H](CC1CCCCC1)N1CCN(S(=O)(=O)c2cc3ccccc3o2)CC1=O [Example 226, (S)-2-(4-(benzofuran-2-ylsulfonyl)-2-oxopiperazin-1-yl)-3-cyclohexyl-N-(thiazol-2-yl)propanamide] | 0.794 to 1.26 | 74.1 to 97 | –

Further lines, results first:

Row | EC50 [µM] | Emax [1] [%] | % ACTmax [1] | Compound
15 | ≤ 0.631 | 108 to 119 | – | O=C(Nc1ncc(Cl)s1)C(CC1CCOCC1)N1CCN(S(=O)(=O)c2cccs2)CC1=O (stereo not shown) [Example 36, N-(5-chlorothiazol-2-yl)-2-(2-oxo-4-(thiophen-2-ylsulfonyl)piperazin-1-yl)-3-(tetrahydro-2H-pyran-4-yl)propanamide]
16 | ≤ 0.631 | 97.1 to 107 | – | O=C(Nc1nccs1)[C@H](CC1CCCCC1)N1CCN(C(=S)NCCN2CCCCC2)CC1=O [Example 121, (S)-3-cyclohexyl-2-(2-oxo-4-(2-(piperidin-1-yl)ethylcarbamothioyl)piperazin-1-yl)-N-(thiazol-2-yl)propanamide]
17 | ≤ 0.631 | ≥ 119 | – | Cc1cccc(S(=O)(=O)N2CCN([C@@H](CC3CCCCC3)C(=O)Nc3nccs3)C(=O)C2)c1 [Example 192, (S)-3-cyclohexyl-2-(2-oxo-4-(m-tolylsulfonyl)piperazin-1-yl)-N-(thiazol-2-yl)propanamide]
18 | 0.794 to 1.26 | ≥ 119 | – | O=C(Nc1nccs1)[C@H](CC1CCCCC1)N1CCN(S(=O)(=O)c2ccc(F)c(F)c2F)CC1=O [Example 183, (S)-3-cyclohexyl-2-(2-oxo-4-(2,3,4-trifluorophenylsulfonyl)piperazin-1-yl)-N-(thiazol-2-yl)propanamide]
19 | 0.794 to 1.26 | ≥ 119 | – | O=C(Nc1ncc(Cl)s1)[C@H](CC1CCOCC1)N1CCN(S(=O)(=O)C2CC2)CC1=O [Example 24, (S)-N-(5-chlorothiazol-2-yl)-2-(4-(cyclopropylsulfonyl)-2-oxopiperazin-1-yl)-3-(tetrahydro-2H-pyran-4-yl)propanamide]
20 | ≤ 0.631 | 108 to 119 | – | Cn1ccc(S(=O)(=O)N2CCN([C@@H](CC3CCCCC3)C(=O)Nc3nccs3)C(=O)C2)n1 [Example 112, (S)-3-cyclohexyl-2-(4-(1-methyl-1H-pyrazol-3-ylsulfonyl)-2-oxopiperazin-1-yl)-N-(thiazol-2-yl)propanamide]
21 | ≤ 0.631 | ≤ 74 | – | Cc1cc(S(=O)(=O)N2CCN([C@@H](CC3CCCCC3)C(=O)Nc3nccs3)C(=O)C2)c(C)cc1Cl [Example 186, (S)-2-(4-(4-chloro-2,5-dimethylphenylsulfonyl)-2-oxopiperazin-1-yl)-3-cyclohexyl-N-(thiazol-2-yl)propanamide]
22 | ≤ 0.631 | – | 107.5-119.0% | O=C(Nc1nccs1)[C@H](CC1CCCCC1)N1CCN(S(=O)(=O)C2CC2)CC1=O [Example 2, (S)-3-cyclohexyl-2-(4-(cyclopropylsulfonyl)-2-oxopiperazin-1-yl)-N-(thiazol-2-yl)propanamide]
23 | ≤ 0.631 | 108 to 119 | – | Cc1ccc(S(=O)(=O)N2CCN([C@@H](CC3CCCCC3)C(=O)Nc3nccs3)C(=O)C2)cc1F [Example 189, (S)-3-cyclohexyl-2-(4-(3-fluoro-4-methylphenylsulfonyl)-2-oxopiperazin-1-yl)-N-(thiazol-2-yl)propanamide]
